Measured values as given in publication PMC9313812, “The Pseudo‐Natural Product Rhonin Targets RHOGDI” (Angewandte Chemie (International Ed. in English), 2022).

Key:
NIH/3T3 cells = test: Smoothened trafficking (ciliary localization of SMO); format: cell-based; settings: purmorphamine stimulation
Description: in fresh medium containing 0.5 % FBS and 5 nM BODIPY-cyclopamine for 4 h. Afterwards, cell nuclei were stained with 1 µg/ml DAPI for 10 min, samples were washed three times with PBS and subsequently mounted on glass slides using Aqua Polymount (Polysciences Inc).
Images were acquired on an Axiovert Observer Z1 microscope (Carl Zeiss, Germany) using a Plan-Apochromat 63x/1.40 Oil DIC M27 objective.
Additionally, SMO binding was confirmed by flow cytometry. HEK293T cells were seeded (3×10^5 per well) in 6-well plate and transfected with BFP-SMO-expressing plasmid using FuGENE HD transfection reagent according to the manufacturer’s instructions. After 48 h of incubation the medium was replaced by DMEM containing 0.5% FBS, 5 nM BODIPY-cyclopamine and various concentrations of the test compounds or DMSO as a control. […]
(§1) projections, after previous background subtraction. For quantification, cilia were identified and […]
(§2) Smoothened antibody were measured within these areas. […]
(§3) significances were assessed using an unpaired t-test (confidence interval of 95%) with the […]
(§4) replicates were performed and for each replicate at least 100 cilia per condition were analyzed.
(§5) Reverse transcription- quantitative PCR (RT-qPCR) […]
(§6) DNase I digestion step. The concentration of purified RNA was determined by means of the […]

[1] = tested on: Alpl expression in C3H10T1/2 cells; test: RT-qPCR of Alpl mRNA; format: cell-based, mouse; settings: 1.5 μM purmorphamine, 96 h
Description: Supplementary Figure S6 (related to Figure 5). Characterization of compound 7l (Rhonin).
(a) GLI-responsive reporter gene assay in SHH-LIGHT2 cells. (b) Influence of Rhonin on the expression of Alpl. C3H10T1/2 cells were treated with 1.5 µM purmorphamine and the compounds for 96 h prior to RT-qPCR to detect Alpl mRNA levels. Data were normalzed to Gapdh and Ap3d1 gene levels and are mean values (n = 3) ± SD. (c) Detection of cilia in NIH/3T3 cells. NIH/3T3 cells were cultured in serum reduced (0.5 % FCS) medium for 24 h to induce cilia formation, followed by a pre-treatment of cells with different concentrations of 7l or Vismodegib or DMSO as a control in serum reduced medium. […]
as §1, §2, §3, §4, §5, §6
QuantiTect Reverse Transcription Kit (Qiagen) according to the manufacturer’s protocol. […]
determined by means of quantitative RT-PCR using the QuantiFast SYBR Green PCR Kit […]

Structure (SMILES)	Localization of SMO to cilia (in words) (NIH/3T3 cells)	Expression of the alkaline phosphatase gene Alpl (in words) [1]
COC(=O)C1(C(CC(=O)c2cccnc2)c2ccccc2)N=C(c2ccc(Br)cc2)C2C(=O)N(C)C(=O)C21 (stereo not drawn) [7l]	SMO was localized to the cilia	inhibited the expression of the alkaline phosphatase gene
COC(=O)C1(C(CC(=O)c2ccccc2)c2ccccc2)N=C(c2ccc(Br)cc2)C2C(=O)N(C)C(=O)C21 (stereo not drawn) [7a]	did not affect the localization of SMO to cilia	–
